According to ChEMBL document CHEMBL4765250, “Discovery of hydrazone containing thiadiazoles as Mycobacterium tuberculosis growth and enoyl acyl carrier protein reductase (InhA) inhibitors” (Eur J Med Chem, 2020):
Converted amounts (≈) assume the structure as drawn.

What was measured:
[1] = Cytotoxicity against mouse RAW264.7 cells assessed as decrease cell viability at 50 ug/ml measured after 48 hrs by MTT assay; assay type: cell-based; conditions: at 50 µg/mL, read-out: INH
[2] = tested on: Mycobacterium tuberculosis; experiment: Antitubercular activity against Mycobacterium tuberculosis H37Rv measured after 7 days by MABA method; assay type: functional; conditions: 168 h, time 7 day
[3] = Solubility of compound in aqueous buffer at pH 6.8; assay type: physicochemical
[4] = molecular target: T1, Enoyl-[acyl-carrier-protein] reductase [NADH] (Mycobacterium tuberculosis) (UniProt P9WGR1); experiment: Inhibition of wild type InhA in Mycobacterium tuberculosis H37Rv using trans-2-dodecenoyl-coenzyme A as substrate at 5 uM
T1 sequence (whole entry): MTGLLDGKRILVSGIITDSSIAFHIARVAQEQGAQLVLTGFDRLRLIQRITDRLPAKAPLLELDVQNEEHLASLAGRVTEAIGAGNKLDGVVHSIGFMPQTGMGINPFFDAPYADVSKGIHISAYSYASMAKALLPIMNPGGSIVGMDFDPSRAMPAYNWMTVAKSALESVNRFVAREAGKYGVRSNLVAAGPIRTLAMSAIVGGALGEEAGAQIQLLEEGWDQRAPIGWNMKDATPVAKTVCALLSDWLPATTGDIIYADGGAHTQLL

[5] = tested on: Mycobacterium tuberculosis; experiment: Antitubercular activity at Mycobacterium tuberculosis H37Rv in nutrition starved condition medium assessed as log reduction of cell growth at 10 ug/ml measured after 7 days by MPN method; assay type: functional; conditions: dose 10 µg/ml; time 7 day

Compound | cytotoxicity at 48 h, 50 ug/ml [1] | MIC [2] | solubility [3] | inhibition [4] | FC [5]
Cc1ccc(/C=N/Nc2nsc(Nc3ccc(I)cc3)n2)cc1 | 21.1% | 3.59 µM (≈ 1.56 µg/mL) | – | – | –
Ic1ccc(Nc2nc(N/N=C/c3ccccc3)ns2)cc1 | – | 59.4 µM (≈ 25 µg/mL) | Insoluble | – | –
Cc1ccc(/C=N/Nc2nsc(Nc3ccc(C(F)(F)F)cc3)n2)cc1 | 29.1% | 16.6 µM (≈ 6.26 µg/mL) | – | 35% | –
NNC(=O)c1ccncc1 [ISONIAZID] | – | 0.36 µM (≈ 0.0494 µg/mL) | – | – | 1.4
Brc1ccc(Nc2nc(N/N=C/c3ccccc3)ns2)cc1 | 25.8% | 4.17 µM (≈ 1.56 µg/mL) | – | 39% | –
Cc1ccc(/C=N/Nc2nsc(Nc3ccc(C)cc3)n2)cc1 | – | > 77.4 µM | – | – | –
C(=N\Nc1nsc(Nc2ccccc2)n1)/c1ccccc1 | – | > 84.8 µM | – | – | –
CO[C@H]1/C=C/O[C@@]2(C)Oc3c(C)c(O)c4c(O)c(c(/C=N/N5CCN(C)CC5)c(O)c4c3C2=O)NC(=O)/C(C)=C\C=C\[C@H](C)[C@H](O)[C@@H](C)[C@@H](O)[C@@H](C)[C@H](OC(C)=O)[C@@H]1C [RIFAMPIN] | – | 0.12 µM (≈ 0.0988 µg/mL) | – | – | 1.6
COc1ccc(Nc2nc(N/N=C/c3ccccc3)ns2)cc1 | 24.6% | 2.4 µM (≈ 0.781 µg/mL) | – | – | 2.2
CC[C@@H](CO)NCCN[C@@H](CC)CO [ETHAMBUTOL] | – | 7.6 µM (≈ 1.55 µg/mL) | – | – | –
Cc1ccc(Nc2nc(N/N=C/c3ccccc3)ns2)cc1 | 31.5% | 2.52 µM (≈ 0.78 µg/mL) | – | 48% | 2.4
COc1ccc(Nc2nc(N/N=C/c3ccc(C)cc3)ns2)cc1 | – | > 73.8 µM | – | – | –
Cc1ccc(/C=N/Nc2nsc(Nc3ccc(Cl)cc3Cl)n2)cc1 | 33.1% | 8.27 µM (≈ 3.13 µg/mL) | – | 48% | –
O=[N+]([O-])c1ccc(Nc2nc(N/N=C/c3ccccc3)ns2)cc1 | – | 73.5 µM (≈ 25 µg/mL) | – | – | –
Cc1ccc(/C=N/Nc2nsc(Nc3ccc([N+](=O)[O-])cc3)n2)cc1 | – | > 70.6 µM | – | – | –
FC(F)(F)c1ccc(Nc2nc(N/N=C/c3ccccc3)ns2)cc1 | – | 34.4 µM (≈ 12.5 µg/mL) | – | – | –
Cc1ccc(/C=N/Nc2nsc(Nc3ccccc3)n2)cc1 | – | > 80.9 µM | – | – | –
Clc1ccc(Nc2nc(N/N=C/c3ccccc3)ns2)c(Cl)c1 | – | 4.29 µM (≈ 1.56 µg/mL) | – | – | –
Cc1ccc(/C=N/Nc2nsc(Nc3ccc(F)cc3)n2)cc1 | – | > 76.5 µM | – | 26% | –
Fc1ccc(Nc2nc(N/N=C/c3ccccc3)ns2)cc1 | – | > 79.9 µM | – | – | –
Cc1ccc(/C=N/Nc2nsc(Nc3ccc(Br)cc3)n2)cc1 | – | > 64.4 µM | – | – | –
